The source of these data is ChEMBL document CHEMBL4219065, “Progress in the Development of Preventative Drugs for Cisplatin-Induced Hearing Loss” (J Med Chem, 2018).

The nature of series [1]: Terminal half life in rat. As to conditions: in vivo.
The test system of a further series is Homo sapiens. As to the kind of experiment: Protection against cisplatin-induced ototoxicity in human assessed as reduction in hearing loss administered iv 35 mins prior to cisplatin treatment. Type of series: functional. More on the design: scale not given: the % may be the effect or the level left.

As for `[14CH3]SCC[C@@H](N)C(=O)O`, in series [1], the half-life (commonly the time in which the quantity being followed falls by half) is 34.2 min. Take `NCCCNCCSP(=O)(O)O` [AMIFOSTINE]: the Activity in the series on Homo sapiens is given as 43%.
